The values below come from ChEMBL document CHEMBL3813683, “Design, synthesis and anti-cancer activity evaluation of podophyllotoxin-norcantharidin hybrid drugs” (Bioorg Med Chem Lett, 2016).

Test [1] in a line: Cytotoxicity against HEK293T cells after 36 hrs by MTT assay. In kind it is cell-based. The settings on record: Homo sapiens, HEK-293T.
In the next test the test system is MCF7. The test is described as follows: Cytotoxicity against human MCF7 cells after 36 hrs by MTT assay. Particulars: MCF7, 36 h. It counts as functional, cell-based. (Tetrazolium dyes change colour on reduction, which living cells bring about.)
In a further test the test system is A549. The test is described as follows: Cytotoxicity against human A549 cells after 36 hrs by MTT assay. The settings on record: A549, 36 h. In kind it is functional, cell-based.
The next test concerns HeLa. The test is described as follows: Cytotoxicity against human HeLa cells after 36 hrs by MTT assay. It counts as functional, cell-based.

As to `COc1cc(C2c3cc4c(cc3[C@H](OC(=O)[C@H](Cc3ccccc3)N3C(=O)C5CCCCC5C3=O)[C@H]3COC(=O)[C@H]23)OCO4)cc(OC)c1OC` (some centres not stated), the IC50 (as a rule, the concentration that gives 50% inhibition) came to 42.6 µM in test [1], 8.24 µM with MCF7, 4.92 µM with A549 and 8.28 µM in the test on HeLa.

Consider `COc1cc(C2c3cc4c(cc3[C@H](OC(=O)[C@H](C)N3C(=O)c5ccccc5C3=O)[C@H]3COC(=O)[C@H]23)OCO4)cc(OC)c1OC` (some centres not stated), for which the IC50 in test [1] was found to be 88.6 µM; in the test with MCF7 it was 18.3 µM; in the test with A549, 5.89 µM; in the test with HeLa, 19 µM.

As to `COc1cc(C2c3cc4c(cc3[C@H](OC(=O)[C@H](Cc3ccccc3)N3C(=O)C5C6CCC(O6)C5C3=O)[C@H]3COC(=O)[C@H]23)OCO4)cc(OC)c1OC` (some centres not stated), the half-inhibitory concentration (IC50) in test [1] was 70.3 µM; with MCF7 it was 6.53 µM; with A549, 3.69 µM; in the test with HeLa, 8.79 µM.

`COc1cc(C2c3cc4c(cc3[C@H](OC(=O)[C@H](C)N3C(=O)C5CCCCC5C3=O)[C@H]3COC(=O)[C@H]23)OCO4)cc(OC)c1OC` (some centres not stated): the IC50 was 74.2 µM in test [1], 4.59 µM in the test with MCF7, 2.44 µM in the test on A549 and 5.81 µM in the test on HeLa.

For `COc1cc(C2c3cc4c(cc3[C@H](OC(=O)[C@@H](Cc3ccccc3)N3C(=O)c5ccccc5C3=O)[C@H]3COC(=O)[C@H]23)OCO4)cc(OC)c1OC` (some centres not stated), the IC50 is 50.9 µM in test [1], 25.5 µM in the test on MCF7, 7.28 µM with A549 and 18.7 µM in the test with HeLa.

With `COc1cc(C2c3cc4c(cc3[C@H](OC(=O)C(Cc3ccccc3)N3C(=O)c5ccccc5C3=O)[C@H]3COC(=O)[C@H]23)OCO4)cc(OC)c1OC` (some centres not stated), the IC50 in test [1] turned out to be 65.9 µM; in the test on MCF7 it was 6.41 µM; in the test on A549, 4.16 µM; in the test on HeLa, 7.12 µM.

With `COc1cc(C2c3cc4c(cc3[C@H](OC(=O)[C@H](Cc3ccccc3)N3C(=O)c5ccccc5C3=O)[C@H]3COC(=O)[C@H]23)OCO4)cc(OC)c1OC` (some centres not stated), the IC50 in test [1] amounted to 54.8 µM; in the test on MCF7, 10.1 µM; with A549, 8.11 µM; in the test on HeLa, 12.5 µM.

`COc1cc(C2c3cc4c(cc3[C@H](OC(=O)[C@@H](Cc3ccccc3)N3C(=O)C5CCCCC5C3=O)[C@H]3COC(=O)[C@H]23)OCO4)cc(OC)c1OC` (some centres not stated): the IC50 in test [1] turned out to be 63.4 µM; in the test on MCF7, 3.73 µM; with A549 it was 3.89 µM; with HeLa, 3.89 µM.

In the case of `COc1cc(C2c3cc4c(cc3[C@H](OC(=O)C(C)N3C(=O)c5ccccc5C3=O)[C@H]3COC(=O)[C@H]23)OCO4)cc(OC)c1OC` (some centres not stated), the IC50 in test [1] turned out to be 51.3 µM; in the test with MCF7, 16.8 µM; in the test with A549, 5.37 µM; in the test with HeLa, 17.2 µM.

Regarding `COc1cc(C2c3cc4c(cc3[C@H](OC(=O)[C@H](C)N3C(=O)C5C6CCC(O6)C5C3=O)[C@H]3COC(=O)[C@H]23)OCO4)cc(OC)c1OC` (some centres not stated), the IC50 in test [1] stood at 64.2 µM; in the test with MCF7, 1.22 µM; with A549, 1.18 µM; with HeLa it was 3.02 µM.

Regarding `COc1cc(C2c3cc4c(cc3[C@H](OC(=O)[C@@H](C)N3C(=O)c5ccccc5C3=O)[C@H]3COC(=O)[C@H]23)OCO4)cc(OC)c1OC` (some centres not stated), the IC50 in test [1] turned out to be 59.3 µM; in the test with MCF7, 8.29 µM; in the test with A549 it was 8.08 µM; in the test with HeLa, 11.8 µM.

With `COc1cc(C2c3cc4c(cc3[C@H](OC(=O)[C@@H](C)N3C(=O)C5CCCCC5C3=O)[C@H]3COC(=O)[C@H]23)OCO4)cc(OC)c1OC` (some centres not stated), the IC50 in test [1] was 54.5 µM; in the test on MCF7, 2.51 µM; in the test on A549, 2.11 µM; with HeLa, 2.15 µM.

`COc1cc(C2c3cc4c(cc3[C@H](OC(=O)C(C)N3C(=O)C5C6CCC(O6)C5C3=O)[C@H]3COC(=O)[C@H]23)OCO4)cc(OC)c1OC` (some centres not stated): the IC50 in test [1] was 53.2 µM; with MCF7, 1.74 µM; in the test with A549, 1.91 µM; in the test on HeLa, 1.86 µM.

Turning to `COc1cc(C2c3cc4c(cc3[C@H](OC(=O)[C@@H](Cc3ccccc3)N3C(=O)C5C6CCC(O6)C5C3=O)[C@H]3COC(=O)[C@H]23)OCO4)cc(OC)c1OC` (some centres not stated), the IC50 amounted to 67.7 µM in test [1], 2.75 µM in the test on MCF7, 4.32 µM with A549 and 3.09 µM with HeLa.

Consider `COc1cc(C2c3cc4c(cc3[C@H](OC(=O)C(Cc3ccccc3)N3C(=O)C5CCCCC5C3=O)[C@H]3COC(=O)[C@H]23)OCO4)cc(OC)c1OC` (some centres not stated), for which the IC50 in test [1] is 61.5 µM; in the test with MCF7 it was 1.17 µM; in the test on A549, 1.72 µM; in the test on HeLa, 2.22 µM.

Regarding `COc1cc(C2c3cc4c(cc3[C@H](OC(=O)C(C)N3C(=O)C5CCCCC5C3=O)[C@H]3COC(=O)[C@H]23)OCO4)cc(OC)c1OC` (some centres not stated), the IC50 turned out to be 90.7 µM in test [1], 1.87 µM with MCF7, 2.34 µM with A549 and 2.01 µM in the test with HeLa.

Turning to `COc1cc(C2c3cc4c(cc3[C@H](OC(=O)[C@@H](C)N3C(=O)C5C6CCC(O6)C5C3=O)[C@H]3COC(=O)[C@H]23)OCO4)cc(OC)c1OC` (some centres not stated), the IC50 in test [1] turned out to be 80.8 µM; with MCF7 it was 1.17 µM; with A549 it was 2 µM; in the test on HeLa it was 1.14 µM.

For the compound `COc1cc([C@@H]2c3cc4c(cc3[C@@H](O[C@@H]3O[C@@H]5CO[C@@H](C)O[C@H]5[C@H](O)[C@H]3O)[C@H]3COC(=O)[C@H]23)OCO4)cc(OC)c1O` [ETOPOSIDE], the IC50 in test [1] was 11.5 µM; in the test on MCF7, 1.74 µM; in the test on A549 it was 8.01 µM; in the test on HeLa, 4.39 µM.
